These compounds were tested against T1, recombinant mouse NPY5-receptor (mNPY5) (Mus musculus, UniProt O70342) (assay: Radioligand competition binding). Conditions: membranes of HEK293 cells expressing mNPY5; 100 pM [125I]labelled peptide YY (PYY); 1 h at 22° C.; read-out: NPY5-R (mouse) IC50.
T1 construct: The full-length cDNA encoding the mouse NPY5 (mNPY5) receptor was amplified from mouse brain cDNA; expressed in transfected cells; membrane preparation
T1 sequence (O70342 1-466): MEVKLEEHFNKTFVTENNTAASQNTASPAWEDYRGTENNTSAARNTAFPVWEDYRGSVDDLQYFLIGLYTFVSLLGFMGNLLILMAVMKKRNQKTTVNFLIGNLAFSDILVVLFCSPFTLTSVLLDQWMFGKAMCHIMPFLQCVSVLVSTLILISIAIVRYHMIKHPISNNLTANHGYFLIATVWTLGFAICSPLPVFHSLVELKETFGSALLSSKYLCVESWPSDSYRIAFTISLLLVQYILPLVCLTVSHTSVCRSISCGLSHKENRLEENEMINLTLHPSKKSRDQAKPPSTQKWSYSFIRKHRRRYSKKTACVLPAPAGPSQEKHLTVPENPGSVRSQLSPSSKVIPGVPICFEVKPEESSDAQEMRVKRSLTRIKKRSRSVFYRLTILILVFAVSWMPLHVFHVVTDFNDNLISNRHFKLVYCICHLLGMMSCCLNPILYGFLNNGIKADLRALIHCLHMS
Source text: The full-length cDNA encoding the mouse NPY5 (mNPY5) receptor was amplified from mouse brain cDNA using specific primers, designed based on the published sequence, and Pfu DNA-Polymerase. The amplification product was subcloned into the mammalian expression vector pcDNA3 using Eco RI and XhoI restriction sites. Positive clones were sequenced and one clone, encoding the published sequence was selected for generation of stable cell clones.
Human embryonic kidney 293 (HEK293) cells were transfected with 10 μg mNPY5 DNA using the lipofectamine reagent. Two days after transfection, geneticin selection (1 mg/ml) was initiated and several stable clones were isolated. One clone was further used for pharmacological characterization.
Human embryonic kidney 293 cells (HEK293), expressing recombinant mouse NPY5-receptor (mNPY5) were broken by three freeze/thawing cycles in hypotonic Tris buffer (5 mM, pH 7.4, 1 mM MgCl2), homogenized and centrifuged at 72,000×g for 15 min. The pellet was washed twice with 75 mM Tris buffer, pH 7.4, containing 25 mM MgCl2 and 250 mM sucrose, 0.1 mM phenylmethylsulfonylfluoride and 0.1 mM 1,10-pheneanthrolin, resuspended in the same buffer and stored in aliquots at −80° C. Protein was determined according to the method of Lowry using bovine serum albumine (BSA) as a standard. […]

`Cc1ccccc1C(=O)c1cnc(NCC2CCN(S(=O)(=O)N(C)C)CC2)s1` [Example 18, 4-{[5-(2-Methyl-benzoyl)-thiazol-2-ylamino]-methyl}-piperidine-1-sulfonic acid dimethylamide] and `Cc1ccccc1C(=O)c1cnc(NC2CCN(S(=O)(=O)c3cccs3)CC2)s1` [Example 41, {2-[1-(Thiophene-2-sulfonyl)-piperidin-4-ylamino]-thiazol-5-yl}-o-tolyl-methanone] are within 1.5-fold of each other in IC50: 850 pM for the first, 770 pM for the second.

`CCc1ccccc1C(=O)c1cnc(NC2CCN(S(=O)(=O)c3cccs3)CC2)s1` [Example 32, (2-Ethyl-phenyl)-{2-[1-(thiophene-2-sulfonyl)-piperidin-4-ylamino]-thiazol-5-yl}-methanone] gave an IC50 of 750 pM.

Source: US7265109B2, “Thiazole derivatives” (Hoffmann-La Roche Inc., priority 2003, dated 2007)
